Starred links: 1 amine or outer side, 2 acyl side, 3 side chain; linkers in the order of their positions; H or OH if unused. Non-standard residues stand in square brackets, D forms with d. Residues, ends and D or L forms follow the SMILES beside them. Groups on a side chain read outwards from the residue. *: point of attachment. C18 diacid = O=C(O)CCCCCCCCCCCCCCCCC(=O)*; γGlu = O=C(O)[C@H](CCC(=O)[*:2])N[*:1]; αMeF = C[C@](N)(Cc1ccccc1)C(=O)O; AEEA = NCCOCCOCC(=O)O; Aib = CC(C)(N)C(=O)O
Experiments:
[1] = target: human glucagon receptor (hGCGR) (Homo sapiens, UniProt P47871); assay: cAMP production (HTRF) in CHO cells expressing hGCGR; type: cell-based; design: expressed in transfected cells; conditions: Table 6, peptides modified at position 17; cAMP in CHO hGCGR cells; geometric mean; read-out: hGluc-R EC50
Sequence of human glucagon receptor (hGCGR) (P47871 26-477): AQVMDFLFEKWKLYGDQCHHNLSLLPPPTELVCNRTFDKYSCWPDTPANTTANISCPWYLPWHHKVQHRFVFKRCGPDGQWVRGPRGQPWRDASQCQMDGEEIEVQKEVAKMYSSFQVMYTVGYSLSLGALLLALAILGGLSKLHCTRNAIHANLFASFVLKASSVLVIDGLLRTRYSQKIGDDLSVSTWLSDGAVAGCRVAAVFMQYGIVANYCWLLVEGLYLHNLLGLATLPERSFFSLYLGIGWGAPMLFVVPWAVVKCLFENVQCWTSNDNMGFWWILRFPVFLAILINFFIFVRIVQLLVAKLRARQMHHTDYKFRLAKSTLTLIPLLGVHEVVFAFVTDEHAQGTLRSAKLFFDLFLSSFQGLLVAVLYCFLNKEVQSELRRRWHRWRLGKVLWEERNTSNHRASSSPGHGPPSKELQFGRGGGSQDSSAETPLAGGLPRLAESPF
Procedure, shortened: (§1)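 Potency values represent EC50 from 4-parameter logistic curves of HTRF % Delta F signal. Receptor-expressing CHO cells (hGCGR 2×10^5 cells/mL, hGLP-1R 1×10^5 cells/mL) were exposed for 30 min at room temperature before two-step cAMP detection.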

[2] = target: human GLP-1 receptor (hGLP-1R) (Homo sapiens, UniProt P43220); assay: cAMP production (HTRF) in CHO cells expressing hGLP-1R; type: cell-based; design: expressed in transfected cells; conditions: for EC50: Table 6, peptides modified at position 17, cAMP in CHO hGLP-1R cells, geometric mean, read-out: hGLP-1R EC50; for % Relative Potency Ratio: Table 6, % GLP-1R activity relative to GLP-1 / % GlucR activity relative to glucagon
Sequence of human GLP-1 receptor (hGLP-1R) (P43220 24-463): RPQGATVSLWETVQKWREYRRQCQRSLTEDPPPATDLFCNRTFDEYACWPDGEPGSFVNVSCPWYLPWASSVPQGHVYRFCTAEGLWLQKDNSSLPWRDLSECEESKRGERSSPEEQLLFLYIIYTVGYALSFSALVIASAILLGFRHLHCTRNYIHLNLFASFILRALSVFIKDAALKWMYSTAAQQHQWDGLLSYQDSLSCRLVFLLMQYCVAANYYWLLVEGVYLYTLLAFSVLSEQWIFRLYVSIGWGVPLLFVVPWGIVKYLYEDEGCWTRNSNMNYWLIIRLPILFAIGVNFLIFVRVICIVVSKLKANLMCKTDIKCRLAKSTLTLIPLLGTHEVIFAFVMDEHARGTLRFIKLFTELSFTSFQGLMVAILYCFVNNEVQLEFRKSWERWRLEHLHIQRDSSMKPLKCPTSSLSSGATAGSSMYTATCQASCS
Procedure, shortened: as §1

**Q.** With `CC(C)C[C@H](NC(=O)[C@H](Cc1c[nH]c2ccccc12)NC(=O)[C@H](CCCNC(=N)N)NC(=O)[C@@H](NC(=O)[C@H](Cc1ccccc1)NC(=O)[C@H](CC(=O)O)NC(=O)[C@H](CCC(N)=O)NC(=O)[C@H](C)NC(=O)[C@H](CCCNC(=N)N)NC(=O)[C@H](CCCCNC(=O)COCCOCCNC(=O)COCCOCCNC(=O)CC[C@H](NC(=O)CCCCCCCCCCCCCCCCC(=O)O)C(=O)O)NC(=O)[C@H](CO)NC(=O)[C@H](CC(=O)O)NC(=O)[C@H](CC(C)C)NC(=O)[C@](C)(Cc1ccccc1)NC(=O)[C@H](CCCCN)NC(=O)[C@H](CO)NC(=O)[C@@H](NC(=O)[C@H](CC(=O)O)NC(=O)[C@H](CO)NC(=O)[C@@H](NC(=O)[C@H](Cc1ccccc1)NC(=O)[C@@H](NC(=O)CNC(=O)[C@H](CCC(N)=O)NC(=O)C(C)(C)NC(=O)[C@@H](N)Cc1c[nH]cn1)[C@@H](C)O)[C@@H](C)O)C(C)C)C(C)C)C(=O)N[C@@H](CCC(=O)O)C(=O)NC(C)(C)C(=O)N[C@H](C(=O)N[C@@H](CCC(=O)O)C(=O)O)[C@@H](C)O` [Peptide 171] (H-H[Aib]QGTFTSDVSK[αMeF]LDSK([AEEA-AEEA-γGlu-C18 diacid])RAQDFVRWLE[Aib]TE-OH; N-terminus assumed) as the compound, how does the EC50 [1] read?
**A.** 376 pM

**Q.** And the EC50 [2]?
**A.** 107 pM

**Q.** What about the “% Relative Potency Ratio” value [2] of the same compound?
**A.** 7.0

**Q.** Which results are given for `CC(C)C[C@H](NC(=O)[C@H](Cc1c[nH]c2ccccc12)NC(=O)[C@H](CCCNC(=N)N)NC(=O)[C@@H](NC(=O)[C@H](Cc1ccccc1)NC(=O)[C@H](CC(=O)O)NC(=O)[C@H](CCC(N)=O)NC(=O)[C@H](C)NC(=O)[C@H](CCCNC(=N)N)NC(=O)[C@H](CCCCNC(=O)COCCOCCNC(=O)COCCOCCNC(=O)CC[C@H](NC(=O)CCCCCCCCCCCCCCCCC(=O)O)C(=O)O)NC(=O)[C@H](CO)NC(=O)[C@H](CCC(=O)O)NC(=O)[C@H](CC(C)C)NC(=O)[C@](C)(Cc1ccccc1)NC(=O)[C@H](CCCCN)NC(=O)[C@H](CO)NC(=O)[C@@H](NC(=O)[C@H](CC(=O)O)NC(=O)[C@H](CO)NC(=O)[C@@H](NC(=O)[C@H](Cc1ccccc1)NC(=O)[C@@H](NC(=O)CNC(=O)[C@H](CCC(N)=O)NC(=O)C(C)(C)NC(=O)[C@@H](N)Cc1c[nH]cn1)[C@@H](C)O)[C@@H](C)O)C(C)C)C(C)C)C(=O)N[C@@H](CC(C)C)C(=O)NC(C)(C)C(=O)N[C@H](C(=O)N[C@@H](CCC(=O)O)C(=O)O)[C@@H](C)O` [Peptide 172] (H-H[Aib]QGTFTSDVSK[αMeF]LESK([AEEA-AEEA-γGlu-C18 diacid])RAQDFVRWLL[Aib]TE-OH; N-terminus assumed)?
**A.** EC50 [1]: 1270 pM; EC50 [2]: 213 pM; % Relative Potency Ratio [2]: 11.8

**Q.** Which EC50 [1] does the source give for `CC(C)C[C@H](NC(=O)[C@H](Cc1c[nH]c2ccccc12)NC(=O)[C@H](CCCNC(=N)N)NC(=O)[C@@H](NC(=O)[C@H](Cc1ccccc1)NC(=O)[C@H](CC(=O)O)NC(=O)[C@H](CCC(N)=O)NC(=O)[C@H](C)NC(=O)[C@H](CCCNC(=N)N)NC(=O)[C@H](CCCCNC(=O)COCCOCCNC(=O)COCCOCCNC(=O)CC[C@H](NC(=O)CCCCCCCCCCCCCCCCC(=O)O)C(=O)O)NC(=O)[C@H](CO)NC(=O)[C@H](CCC(=O)O)NC(=O)[C@H](CC(C)C)NC(=O)[C@](C)(Cc1ccccc1)NC(=O)[C@H](CCCCN)NC(=O)[C@H](CO)NC(=O)[C@@H](NC(=O)[C@H](CC(=O)O)NC(=O)[C@H](CO)NC(=O)[C@@H](NC(=O)[C@H](Cc1ccccc1)NC(=O)[C@@H](NC(=O)CNC(=O)[C@H](CCC(N)=O)NC(=O)C(C)(C)NC(=O)[C@@H](N)Cc1c[nH]cn1)[C@@H](C)O)[C@@H](C)O)C(C)C)C(C)C)C(=O)N[C@@H](CC(C)C)C(=O)NC(C)(C)C(=O)N[C@@H](CCC(=O)O)C(=O)O` [Peptide 173] (H-H[Aib]QGTFTSDVSK[αMeF]LESK([AEEA-AEEA-γGlu-C18 diacid])RAQDFVRWLL[Aib]E-OH; N-terminus assumed) here?
**A.** 874 pM

**Q.** What about the EC50 [2] of the same compound?
**A.** 134 pM

**Q.** And the “% Relative Potency Ratio” value [2]?
**A.** 12.9

**Q.** For `CC(C)C[C@H](NC(=O)[C@H](Cc1c[nH]c2ccccc12)NC(=O)[C@H](CCCNC(=N)N)NC(=O)[C@@H](NC(=O)[C@H](Cc1ccccc1)NC(=O)[C@H](CC(=O)O)NC(=O)[C@H](CCC(N)=O)NC(=O)[C@H](C)NC(=O)[C@H](CCCNC(=N)N)NC(=O)[C@H](CCCCNC(=O)COCCOCCNC(=O)COCCOCCNC(=O)CC[C@H](NC(=O)CCCCCCCCCCCCCCCCC(=O)O)C(=O)O)NC(=O)[C@@H](NC(=O)[C@H](CC(=O)O)NC(=O)[C@H](CC(C)C)NC(=O)[C@](C)(Cc1ccccc1)NC(=O)[C@H](CCCCN)NC(=O)[C@H](CO)NC(=O)[C@@H](NC(=O)[C@H](CC(=O)O)NC(=O)[C@H](CO)NC(=O)[C@@H](NC(=O)[C@H](Cc1ccccc1)NC(=O)[C@@H](NC(=O)CNC(=O)[C@H](CCC(N)=O)NC(=O)C(C)(C)NC(=O)[C@@H](N)Cc1c[nH]cn1)[C@@H](C)O)[C@@H](C)O)C(C)C)[C@@H](C)O)C(C)C)C(=O)N[C@@H](CC(C)C)C(=O)NC(C)(C)C(=O)N[C@H](C(=O)N[C@@H](CCC(=O)O)C(=O)O)[C@@H](C)O` [Peptide 174] (H-H[Aib]QGTFTSDVSK[αMeF]LDTK([AEEA-AEEA-γGlu-C18 diacid])RAQDFVRWLL[Aib]TE-OH; N-terminus assumed), which EC50 [1] is on record?
**A.** 420 pM

**Q.** And the EC50 [2]?
**A.** 127 pM

**Q.** And the “% Relative Potency Ratio” value [2]?
**A.** 6.5

**Q.** For `CC(C)C[C@H](NC(=O)[C@H](Cc1c[nH]c2ccccc12)NC(=O)[C@H](CCCNC(=N)N)NC(=O)[C@@H](NC(=O)[C@H](Cc1ccccc1)NC(=O)[C@H](CC(=O)O)NC(=O)[C@H](CCC(N)=O)NC(=O)[C@H](C)NC(=O)[C@H](CCCNC(=N)N)NC(=O)[C@H](CCCCNC(=O)COCCOCCNC(=O)COCCOCCNC(=O)CC[C@H](NC(=O)CCCCCCCCCCCCCCCCC(=O)O)C(=O)O)NC(=O)[C@H](CO)NC(=O)[C@H](CC(=O)O)NC(=O)[C@H](CC(C)C)NC(=O)[C@](C)(Cc1ccccc1)NC(=O)[C@H](CCCCN)NC(=O)[C@H](CO)NC(=O)[C@@H](NC(=O)[C@H](CC(=O)O)NC(=O)[C@H](CO)NC(=O)[C@@H](NC(=O)[C@H](Cc1ccccc1)NC(=O)[C@@H](NC(=O)CNC(=O)[C@H](CCC(N)=O)NC(=O)C(C)(C)NC(=O)[C@@H](N)Cc1c[nH]cn1)[C@@H](C)O)[C@@H](C)O)C(C)C)C(C)C)C(=O)N[C@@H](C)C(=O)NC(C)(C)C(=O)N[C@H](C(=O)N[C@@H](CCC(=O)O)C(=O)O)[C@@H](C)O` [Peptide 175] (H-H[Aib]QGTFTSDVSK[αMeF]LDSK([AEEA-AEEA-γGlu-C18 diacid])RAQDFVRWLA[Aib]TE-OH), which EC50 [1] is on record?
**A.** 2020 pM

**Q.** What about the EC50 [2] of the same compound?
**A.** 68.4 pM

**Q.** And the “% Relative Potency Ratio” value [2]?
**A.** 58.4

**Q.** For `CC(C)C[C@H](NC(=O)[C@H](Cc1c[nH]c2ccccc12)NC(=O)[C@H](CCCNC(=N)N)NC(=O)[C@@H](NC(=O)[C@H](Cc1ccccc1)NC(=O)[C@H](CC(=O)O)NC(=O)[C@H](CCC(N)=O)NC(=O)[C@H](C)NC(=O)[C@H](CCCNC(=N)N)NC(=O)[C@H](CCCCNC(=O)COCCOCCNC(=O)COCCOCCNC(=O)CC[C@H](NC(=O)CCCCCCCCCCCCCCCCC(=O)O)C(=O)O)NC(=O)[C@H](CO)NC(=O)[C@H](CC(=O)O)NC(=O)[C@H](CC(C)C)NC(=O)[C@](C)(Cc1ccccc1)NC(=O)[C@H](CCCCN)NC(=O)[C@H](CO)NC(=O)[C@@H](NC(=O)[C@H](CC(=O)O)NC(=O)[C@H](CO)NC(=O)[C@@H](NC(=O)[C@H](Cc1ccccc1)NC(=O)[C@@H](NC(=O)CNC(=O)[C@H](CCC(N)=O)NC(=O)C(C)(C)NC(=O)[C@@H](N)Cc1c[nH]cn1)[C@@H](C)O)[C@@H](C)O)C(C)C)C(C)C)C(=O)N[C@@H](CC(C)C)C(=O)NC(C)(C)C(=O)N[C@H](C(=O)N[C@@H](C)C(=O)O)[C@@H](C)O` [Peptide 176] (H-H[Aib]QGTFTSDVSK[αMeF]LDSK([AEEA-AEEA-γGlu-C18 diacid])RAQDFVRWLL[Aib]TA-OH; N-terminus assumed), which EC50 [1] is on record?
**A.** 480 pM

**Q.** What about the EC50 [2] of the same compound?
**A.** 59.9 pM

**Q.** What about the “% Relative Potency Ratio” value [2] of the same compound?
**A.** 15.9

**Q.** How did the EC50 [1] turn out when `CC(C)C[C@H](NC(=O)[C@H](Cc1c[nH]c2ccccc12)NC(=O)[C@H](CCCNC(=N)N)NC(=O)[C@@H](NC(=O)[C@H](Cc1ccccc1)NC(=O)[C@H](CC(=O)O)NC(=O)[C@H](CCC(N)=O)NC(=O)[C@H](C)NC(=O)[C@H](CCCNC(=N)N)NC(=O)[C@H](CCCCNC(=O)COCCOCCNC(=O)COCCOCCNC(=O)CC[C@H](NC(=O)CCCCCCCCCCCCCCCCC(=O)O)C(=O)O)NC(=O)[C@H](CCCCN)NC(=O)[C@H](CC(=O)O)NC(=O)[C@H](CC(C)C)NC(=O)[C@](C)(Cc1ccccc1)NC(=O)[C@H](CCCCN)NC(=O)[C@H](CO)NC(=O)[C@@H](NC(=O)[C@H](CC(=O)O)NC(=O)[C@H](CO)NC(=O)[C@@H](NC(=O)[C@H](Cc1ccccc1)NC(=O)[C@@H](NC(=O)CNC(=O)[C@H](CCC(N)=O)NC(=O)C(C)(C)NC(=O)[C@@H](N)Cc1c[nH]cn1)[C@@H](C)O)[C@@H](C)O)C(C)C)C(C)C)C(=O)N[C@@H](CC(C)C)C(=O)NC(C)(C)C(=O)N[C@H](C(=O)N[C@@H](CCC(=O)O)C(=O)O)[C@@H](C)O` [Peptide 178] was run?
**A.** 104 pM

**Q.** And the EC50 [2]?
**A.** 51.8 pM

**Q.** And the “% Relative Potency Ratio” value [2]?
**A.** 4.0

— patent publication US20250353891A1 (MEDIMMUNE LIMITED, priority 2022, published 2025)
